Drawing on BindingDB's records for doi:10.3109/10799899109064686 (Center For Bio-Pharmaceutical Sciences, 1991), this text covers Ki for three compounds.

In experiment [1] the target is 5-hydroxytryptamine receptor 1B (Rattus norvegicus, UniProt P28564).
The target of experiment [2] is T1, Alpha-2C adrenergic receptor (Rattus norvegicus, UniProt P22086).
T1 sequence (P22086 whole entry): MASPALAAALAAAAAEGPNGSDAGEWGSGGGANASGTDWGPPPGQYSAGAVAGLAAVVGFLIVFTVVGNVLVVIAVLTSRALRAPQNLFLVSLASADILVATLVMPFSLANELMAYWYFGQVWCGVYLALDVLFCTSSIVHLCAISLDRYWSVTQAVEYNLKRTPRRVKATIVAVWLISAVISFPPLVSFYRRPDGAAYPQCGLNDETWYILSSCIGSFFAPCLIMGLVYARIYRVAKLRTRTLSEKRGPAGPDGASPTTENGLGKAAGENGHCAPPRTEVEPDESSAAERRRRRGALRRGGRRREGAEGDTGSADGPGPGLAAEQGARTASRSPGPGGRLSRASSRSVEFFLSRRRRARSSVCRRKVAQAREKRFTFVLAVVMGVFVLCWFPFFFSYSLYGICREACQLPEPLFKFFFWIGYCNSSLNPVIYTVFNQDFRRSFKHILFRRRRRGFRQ

Experiment [3] has as its target T2, 5-hydroxytryptamine receptor 3A (Mus musculus, UniProt P23979).
T2 sequence (P23979 whole entry): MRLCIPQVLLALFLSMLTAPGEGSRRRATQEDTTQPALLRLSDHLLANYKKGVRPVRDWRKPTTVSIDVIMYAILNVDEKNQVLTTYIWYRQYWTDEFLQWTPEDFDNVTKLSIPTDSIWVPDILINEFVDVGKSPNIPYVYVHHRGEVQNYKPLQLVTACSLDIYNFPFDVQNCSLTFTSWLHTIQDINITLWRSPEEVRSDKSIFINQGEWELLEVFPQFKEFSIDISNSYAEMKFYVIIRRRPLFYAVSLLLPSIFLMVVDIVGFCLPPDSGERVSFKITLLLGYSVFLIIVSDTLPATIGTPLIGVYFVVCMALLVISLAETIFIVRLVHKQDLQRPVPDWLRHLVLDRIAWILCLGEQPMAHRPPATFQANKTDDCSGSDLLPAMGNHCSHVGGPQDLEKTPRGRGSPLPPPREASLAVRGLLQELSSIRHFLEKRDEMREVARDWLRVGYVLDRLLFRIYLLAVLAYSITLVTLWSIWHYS

The target of experiment [4] is T3, Muscarinic acetylcholine receptor M1 (Rattus norvegicus, UniProt P08482).
T3 sequence (P08482 whole entry): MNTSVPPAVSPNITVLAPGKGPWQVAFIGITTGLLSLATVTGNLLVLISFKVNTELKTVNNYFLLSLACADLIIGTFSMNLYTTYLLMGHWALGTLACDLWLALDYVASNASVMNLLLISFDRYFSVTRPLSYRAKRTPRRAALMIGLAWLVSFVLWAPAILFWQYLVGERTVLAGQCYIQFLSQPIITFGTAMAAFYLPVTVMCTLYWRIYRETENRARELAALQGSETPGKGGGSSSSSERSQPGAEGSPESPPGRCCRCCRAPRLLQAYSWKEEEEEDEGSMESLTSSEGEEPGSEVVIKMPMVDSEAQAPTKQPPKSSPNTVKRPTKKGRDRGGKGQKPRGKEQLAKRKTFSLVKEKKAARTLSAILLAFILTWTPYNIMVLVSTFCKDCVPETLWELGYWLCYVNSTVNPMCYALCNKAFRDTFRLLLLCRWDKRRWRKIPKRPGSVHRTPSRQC

Experiment [5] deals with T4, Muscarinic acetylcholine receptor M2 (Rattus norvegicus, UniProt P10980).
T4 sequence (P10980 whole entry): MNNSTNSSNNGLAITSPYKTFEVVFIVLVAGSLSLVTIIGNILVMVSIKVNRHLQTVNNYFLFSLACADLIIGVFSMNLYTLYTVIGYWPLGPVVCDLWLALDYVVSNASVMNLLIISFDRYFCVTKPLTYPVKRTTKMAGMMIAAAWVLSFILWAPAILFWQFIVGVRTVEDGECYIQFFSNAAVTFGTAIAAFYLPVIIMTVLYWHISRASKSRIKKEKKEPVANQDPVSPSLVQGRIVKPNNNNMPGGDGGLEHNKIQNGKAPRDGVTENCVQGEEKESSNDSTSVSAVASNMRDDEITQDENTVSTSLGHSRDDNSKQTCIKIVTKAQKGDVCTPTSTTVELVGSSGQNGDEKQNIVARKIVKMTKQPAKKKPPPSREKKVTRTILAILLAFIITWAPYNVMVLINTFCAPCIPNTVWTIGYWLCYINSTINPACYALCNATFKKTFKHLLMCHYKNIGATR

The target of another experiment is T5, Adenosine receptor A1 (Bos taurus, UniProt P28190).
T5 sequence (P28190 whole entry): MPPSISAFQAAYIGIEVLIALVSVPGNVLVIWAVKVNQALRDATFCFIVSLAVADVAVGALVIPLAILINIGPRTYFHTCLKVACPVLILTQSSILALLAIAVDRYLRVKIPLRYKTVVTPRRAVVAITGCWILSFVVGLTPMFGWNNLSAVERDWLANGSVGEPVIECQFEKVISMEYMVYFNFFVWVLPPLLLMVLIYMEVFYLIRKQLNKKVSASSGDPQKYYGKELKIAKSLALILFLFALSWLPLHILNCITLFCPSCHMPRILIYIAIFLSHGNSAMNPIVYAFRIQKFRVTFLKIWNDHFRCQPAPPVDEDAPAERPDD

The target of experiment [6] is T6, Gastrin/cholecystokinin type B receptor (Rattus norvegicus, UniProt P30553).
T6 sequence (P30553 whole entry): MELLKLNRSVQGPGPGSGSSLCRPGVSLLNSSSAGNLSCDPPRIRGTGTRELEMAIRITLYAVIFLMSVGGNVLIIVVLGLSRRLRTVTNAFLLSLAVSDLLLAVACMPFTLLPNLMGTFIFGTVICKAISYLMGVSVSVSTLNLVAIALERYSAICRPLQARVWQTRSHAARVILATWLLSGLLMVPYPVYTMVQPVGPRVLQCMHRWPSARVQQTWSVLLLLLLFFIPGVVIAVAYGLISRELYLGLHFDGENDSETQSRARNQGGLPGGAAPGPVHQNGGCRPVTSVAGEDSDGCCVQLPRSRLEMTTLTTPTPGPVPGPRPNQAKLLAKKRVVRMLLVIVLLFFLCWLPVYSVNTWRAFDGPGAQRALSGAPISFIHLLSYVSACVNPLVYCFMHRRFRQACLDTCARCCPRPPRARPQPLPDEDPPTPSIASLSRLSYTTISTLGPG

Molecules are shown by their SMILES. Bounds are passed on as bounds.

Chain of 5-hydroxytryptamine receptor 1B (P28564 whole entry): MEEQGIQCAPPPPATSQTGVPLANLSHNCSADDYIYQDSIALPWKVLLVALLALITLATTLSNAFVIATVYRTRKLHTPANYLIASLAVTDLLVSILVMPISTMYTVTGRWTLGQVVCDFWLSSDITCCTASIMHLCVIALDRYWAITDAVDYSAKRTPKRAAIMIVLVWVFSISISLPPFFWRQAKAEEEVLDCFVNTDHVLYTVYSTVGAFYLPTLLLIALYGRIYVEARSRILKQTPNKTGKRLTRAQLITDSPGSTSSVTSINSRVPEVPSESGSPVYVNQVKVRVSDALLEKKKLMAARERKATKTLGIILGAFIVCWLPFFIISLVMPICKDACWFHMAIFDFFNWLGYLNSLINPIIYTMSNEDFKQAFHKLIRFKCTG

The Ki is a dissociation constant, usually derived from enzyme kinetics or from competition with a known ligand. Lower therefore signals tighter binding. With `N=C(N)NC(=O)c1nc(Cl)c(N2CCCCCC2)nc1N`, the Ki in experiment [1] is more than 10 µM; in experiment [2], 5.2 µM; in experiment [3] it was more than 10 µM; in experiment [4], 3.6 µM; in experiment [5], 2.9 µM; on Adenosine receptor A1 it was 0.41 µM. Further, in experiment [6], the Ki was more than 10 µM.
Turning to `N=C(N)NC(=O)c1nc(Cl)c(N)nc1N` [3,5-diamino-N-carbamimidoyl-6-chloropyrazine-2-carboxamide], the Ki in experiment [1] was more than 10 µM; in experiment [2] it was more than 10 µM; in experiment [3], more than 10 µM; in experiment [4], more than 10 µM; in experiment [5] it was more than 10 µM; on Adenosine receptor A1 it was 2 µM. The compound also had a Ki in experiment [6] of more than 10 µM.
`NC(=NCc1ccccc1)NC(=O)c1nc(Cl)c(N)nc1N` [NSC_108107]: the Ki in experiment [1] was more than 10 µM; in experiment [2], 2.2 µM; in experiment [3], 2.2 µM; in experiment [4], 2.9 µM; in experiment [5], 5.8 µM; at Adenosine receptor A1 it was 0.65 µM. The Ki in experiment [6] is more than 10 µM.
